As usually defined, the IC50 is the concentration needed to halve the response being measured.

The target of this test is BRD4 (Homo sapiens, UniProt O60885). The experiment in a line: Time resolved fluorescence resonance energy transfer (TR-FRET) binding assay, bromodomain BRD4. Conditions: one of the FRET assays described; read-out: FRET BRD4 IC50.
Take `COc1cc2c(c(C)n1)c1ncc(-c3c(C)nnn3C)cc1n2[C@H](c1ccccc1)C1CCOCC1` [Example 283, 5-(Dimethyl-1H-1,2,3-triazol-5-yl)-11-methoxy-13-methyl-8-[(S)-oxan-4-yl(phenyl)methyl]-3,8,12-triazatricyclo[7.4.0.0^2,^7]trideca-1(9),2(7),3,5,10,12-hexaene]: the IC50 was under 1 nM.
The same measure for `Cc1nnn(C)c1-c1cnc2c3ccc(S(=O)(=O)N4CCN(C)CC4)nc3n([C@H](c3ccccc3)C3CCOCC3)c2c1` [Example 198, 5-(Dimethyl-1H-1,2,3-triazol-5-yl)-11-[(4-methylpiperazin-1-yl)sulfonyl]-8-[(S)-oxan-4-yl(phenyl)methyl]-3,8,10-triazatricyclo[7.4.0.0^2,^7]trideca-1(9),2(7),3,5,10,12-hexaene]: under 10 nM; for `Cc1noc(C)c1-c1cc2c(cn1)c1ncc(C(C)(C)O)cc1n2[C@H](c1ccccc1)C1CCOCC1` [Example 369]: under 10 nM; for `Cc1noc(C)c1-c1ccc2c3ncc(-c4c(C)nnn4C)cc3n([C@H](c3ccccc3)C3CCOCC3)c2n1` [Example 147, 11-(Dimethyl-1,2-oxazol-4-yl)-5-(dimethyl-1H-1,2,3-triazol-5-yl)-8-[(S)-oxan-4-yl(phenyl)methyl]-3,8,10-triazatricyclo[7.4.0.0^2,^7]trideca-1(13),2(7),3,5,9,11-hexaene]: under 10 nM.
On to `[2H]C([2H])([2H])c1nnn(C)c1-c1cnc2c3cnc(Cl)cc3n(C(c3ncccc3F)C3CCOCC3)c2c1` (single isomer, unassigned) [Example 320], for which the IC50 is under 1500 nM.
For `COc1nnn(C)c1-c1cnc2c3ccc(N4CCS(=O)(=O)CC4)nc3n([C@H](c3ccccc3F)C3CCOCC3)c2c1` [Example 256, 4-{8-[(S)-(2-Fluorophenyl)(oxan-4-yl)methyl]-5-(4-methoxy-1-methyl-1H-1,2,3-triazol-5-yl)-3,8,10-triazatricyclo[7.4.0.0^2,^7]trideca-1(13),2(7),3,5,9,11-hexaen-11-yl}-1λ^6,4-thiomorpholine-1,1-dione], the IC50 is under 10 nM.
As for `[2H]C([2H])([2H])c1nnn(C)c1-c1cnc2c3c(OCCO)ncc(S(C)(=O)=O)c3n([C@H](c3ccccc3F)C3CCOCC3)c2c1` [Example 63, 2-({8-[(S)-(2-Fluorophenyl)(oxan-4-yl)methyl]-10-methanesulfonyl-5-[4-(^2H3)methyl-1-methyl-1H-1,2,3-triazol-5-yl]-3,8,12-triazatricyclo[7.4.0.0^2,^7]trideca-1(13),2(7),3,5,9,11-hexaen-13-yl}oxy)ethan-1-ol], the IC50 was under 1 nM.
To `[2H]C([2H])([2H])c1nnn(C)c1-c1cnc2c3cnc(N4CCN(C)CC4)cc3n([C@H](c3ccccc3F)C3CCOCC3)c2c1` [Example 244, 8-[(S)-(2-Fluorophenyl)(oxan-4-yl)methyl]-5-[4-(^2H3)methyl-1-methyl-1H-1,2,3-triazol-5-yl]-11-(4-methylpiperazin-1-yl)-3,8,12-triazatricyclo[7.4.0.0^2,^7]trideca-1(13),2(7),3,5,9,11-hexaene] belongs under 10 nM; to `[2H]C([2H])([2H])c1nnn(C)c1-c1cnc2c3c(C(C)(C)O)cncc3n([C@H](c3ccccc3)C3CCOCC3)c2c1` [Example 298, 2-{5-[4-(^2H3)Methyl-1-methyl-1H-1,2,3-triazol-5-yl]-8-[(S)-oxan-4-yl(phenyl)methyl]-3,8,11-triazatricyclo[7.4.0.0^2,^7]trideca-1(9),2(7),3,5,10,12-hexaen-13-yl}propan-2-ol], under 10 nM.
The same measure for `Cc1nnn(C)c1-c1cnc2c3cnc(C#N)nc3n([C@H](c3ccccc3)C3CCOCC3)c2c1` [Example 143, 5-(Dimethyl-1H-1,2,3-triazol-5-yl)-8-[(S)-oxan-4-yl(phenyl)methyl]-3,8,10,12-tetraazatricyclo[7.4.0.0^2,^7]trideca-1(9),2(7),3,5,10,12-hexaene-11-carbonitrile]: under 1500 nM; for `Cc1nnn(C)c1-c1cnc2c3ccc(N4CCS(=O)(=O)C(C)C4)nc3n([C@H](c3ccccc3)C3CCOCC3)c2c1` (single isomer, unassigned; diastereomer b) [Example 218]: under 1 nM.
To `COc1nccc2c3ncc(-c4c(C)nnn4C)cc3n(C(c3c(F)cccc3F)C3CCOCC3)c12` (racemic) [Example 27, 8-[(2,6-Difluorophenyl)(oxan-4-yl)methyl]-5-(dimethyl-1H-1,2,3-triazol-5-yl)-10-methoxy-3,8,11-triazatricyclo[7.4.0.0^2,^7]trideca-1(13),2(7),3,5,9,11-hexaene] belongs under 10 nM; to `Cc1nnn(C)c1-c1cnc2c3ccc(-c4cnn(C5CC5)c4)nc3n([C@H](c3ccccc3)C3CCOCC3)c2c1` [Example 150, 11-(1-Cyclopropyl-1H-pyrazol-4-yl)-5-(dimethyl-1H-1,2,3-triazol-5-yl)-8-[(S)-oxan-4-yl(phenyl)methyl]-3,8,10-triazatricyclo[7.4.0.0^2,^7]trideca-1(13),2(7),3,5,9,11-hexaene], under 1 nM; to `[2H]C([2H])([2H])C(O)(c1cc2c(cn1)c1ncc(-c3c(C)noc3C)cc1n2[C@H](c1ccc(F)cc1)C1CCOCC1)C([2H])([2H])[2H]` [Example 224, 2-[5-(Dimethyl-1,2-oxazol-4-yl)-8-[(S)-(4-fluorophenyl)(oxan-4-yl)methyl]-3,8,12-triazatricyclo[7.4.0.0^2,^7]trideca-1(13),2(7),3,5,9,11-hexaen-11-yl](^2H6)propan-2-ol], under 10 nM.
On to `[2H]C([2H])([2H])c1nnn(C)c1-c1cnc2c3ccc(N4CCN(C(C)(C)C)CC4)nc3n([C@H](c3ccccc3)C3CCOCC3)c2c1` [Example 152, 11-(4-tert-Butylpiperazin-1-yl)-5-[4-(^2H3)methyl-1-methyl-1H-1,2,3-triazol-5-yl]-8-[(S)-oxan-4-yl(phenyl)methyl]-3,8,10-triazatricyclo[7.4.0.0^2,^7]trideca-1(9),2(7),3,5,10,12-hexaene], for which the IC50 was under 10 nM.
For `COc1nccc2c3ncc(-c4c(C)nnn4C)cc3n(C(c3ccccc3F)C3CCOCC3)c12` (single isomer, unassigned) [Example 18, 5-(Dimethyl-1H-1,2,3-triazol-5-yl)-8-[(2-fluorophenyl)(oxan-4-yl)methyl]-10-methoxy-3,8,11-triazatricyclo[7.4.0.0^2,^7]trideca-1(13),2(7),3,5,9,11-hexaene], the IC50 is under 10 nM.
Consider `Cc1nnn(C)c1-c1cnc2c3ccc(NS(C)(=O)=O)nc3n([C@H](c3ccccc3F)C3CCOCC3)c2c1` [Example 240, N-[5-(Dimethyl-1H-1,2,3-triazol-5-yl)-8-[(S)-(2-fluorophenyl)(oxan-4-yl)methyl]-3,8,10-triazatricyclo[7.4.0.0^2,^7]trideca-1(13),2(7),3,5,9,11-hexaen-11-yl]methanesulfonamide], for which the IC50 is under 10 nM.
Regarding `[2H]C([2H])([2H])c1nnn(C)c1-c1cnc2c3c(OC)ncc(C(C)(C)O)c3n(C(c3ccccc3)C3CCC(F)(F)CC3)c2c1` (single isomer, unassigned) [Example 282, 2-{8-[(4,4-Difluorocyclohexyl)(phenyl)methyl]-13-methoxy-5-[4-(^2H3)methyl-1-methyl-1H-1,2,3-triazol-5-yl]-3,8,12-triazatricyclo[7.4.0.0^2,^7]trideca-1(9),2,4,6,10,12-hexaen-10-yl}propan-2-ol], the IC50 was under 1 nM.
To `Cc1nnn(C)c1-c1cnc2c3c(OCC4CC4)ncc(S(C)(=O)=O)c3n([C@H](c3ccccc3)C3CCOCC3)c2c1` [Example 101, 13-(Cyclopropylmethoxy)-5-(dimethyl-1H-1,2,3-triazol-5-yl)-10-methanesulfonyl-8-[(S)-oxan-4-yl(phenyl)methyl]-3,8,12-triazatricyclo[7.4.0.0^2,^7]trideca-1(13),2(7),3,5,9,11-hexaene] belongs under 10 nM.
To `COc1ncc(S(C)(=O)=O)c2c1c1ncc(-c3c(C)noc3C)cc1n2[C@H](c1ccccc1)C1CCOCC1` [Example 45, 5-(Dimethyl-1,2-oxazol-4-yl)-10-methanesulfonyl-13-methoxy-8-[(S)-oxan-4-yl(phenyl)methyl]-3,8,12-triazatricyclo[7.4.0.0^2,^7]trideca-1(13),2(7),3,5,9,11-hexaene] belongs under 1 nM; to `CC(=O)c1cc2c(cn1)c1ncc(-c3c(C)nnn3C)cc1n2[C@H](c1ccc(F)cc1)C1CCOCC1` [Example 337], under 10 nM; to `CCCC(c1ccccc1)n1c2cc(-c3c(C)nnn3C)ncc2c2ncc(C(C)(C)O)cc21` (stereo not shown) [Example 372], under 1500 nM.
For `Cc1nnn(C)c1-c1cnc2c3ccc(-c4ccnn4C)nc3n([C@H](c3ccccc3F)C3CCOCC3)c2c1` [Example 229, 5-(Dimethyl-1H-1,2,3-triazol-5-yl)-8-[(S)-(2-fluorophenyl)(oxan-4-yl)methyl]-11-(1-methyl-1H-pyrazol-5-yl)-3,8,10-triazatricyclo[7.4.0.0^2,^7]trideca-1(13),2(7),3,5,9,11-hexaene], the IC50 is under 10 nM.
To `[2H]C([2H])([2H])c1nnn(C)c1-c1cnc2c3c(OCC4CCCO4)ncc(S(C)(=O)=O)c3n([C@H](c3ccccc3)C3CCOCC3)c2c1` (stereo partly drawn) [Example 110, 10-Methanesulfonyl-5-[4-(^2H3)methyl-1-methyl-1H-1,2,3-triazol-5-yl]-8-[(S)-oxan-4-yl(phenyl)methyl]-13-[(2S)-oxolan-2-ylmethoxy]-3,8,12-triazatricyclo[7.4.0.0^2,^7]trideca-1(13),2(7),3,5,9,11-hexaene] belongs under 10 nM; to `[2H]C([2H])([2H])c1nnn(C)c1-c1cnc2c3c(N(C)CC)nccc3n([C@H](c3ccccc3)C3CCOCC3)c2c1` [Example 132, N-Ethyl-N-methyl-5-[4-(^2H3)methyl-1-methyl-1H-1,2,3-triazol-5-yl]-8-[(S)-oxan-4-yl(phenyl)methyl]-3,8,12-triazatricyclo[7.4.0.0^2,^7]trideca-1(13),2(7),3,5,9,11-hexaen-13-amine], under 1 nM.
